Reference: US20030212144A1, “Method for inducing an estrous cycle and pregnancy in a female mammal” (priority 2003, published 2003)
No end group written: not given here.

Columns and labels:
old acyclic rats = conditions: cited from earlier work
greyhound bitches = conditions: Bruyette et al., personal communication; cited from earlier work
[1] = tested on: release of dihydroxyphenylacetic acid (DOPAC) from the hypothalamus; experiment: DOPAC release and content, static in vitro incubation of hypothalami, HPLC-EC; assay type: cell-based, Sprague-Dawley rats; conditions: for concentration of DOPAC in the hypothalamus at the end of the experiment: control 416±176; for DOPAC release: second incubation period; for DOPAC release after removal of deprenyl from the medium: third incubation period
Description: (§1) Four- to six-month old male Sprague-Dawley rats were obtained from Amitech (Omaha, Nebr.). These rats were housed in groups in air-conditioned (23±2° C.) and light controlled (lights on from 0700-1900 hours) animal rooms. They were provided rat chow and water ad libitum.
(§2) On the day of the experiment, the rats were sacrificed between 1200-1300 hrs. The brains were removed immediately and the hypothalami were dissected out using the following boundaries: the posterior part of the optic chiasmas the anterior limit, the anterior part of the mammillary bodies as the posterior limit, and the lateral hypothalamic sulci as the lateral limits (Palazzolo et al., Life Sci. 47: 2105-2109 (1990); Palazzolo et al., Life Sci. 51: 1797-1802 (1992)).
(§3) The hypothalami were weighed and divided into two halves along the sagittal plane and placed in a 12×75 mm glass tube containing 300 μl of Krebs-Ringer Henseleit (KRH) solution. The hypothalami were incubated in a static in vitro incubation system as described previously (Palazzolo et al., Life Sci. 47: 2105-2109 (1990); Palazzolo et al., Life Sci. 51: 1797-1802 (1992)). Briefly, the incubation system consisted of a plexiglass water bath, a magnetic circulator fin, and a thermostat coil. The bath was filled with distilled water and the thermostat was switched on at least an hour before the perfusion. The temperature in the water bath was maintained at 37° C. The magnetically controlled circulator fins stirred the water constantly to maintain a uniform temperature throughout the water bath. The incubation medium, KRH, consisted of 117 mM NaCl, 4.7 mM KCl, 1.2 mM MgSO4, 1.2 mM KH2PO4, 2.5 mM CaCl2, 24.8 mM NaHCO3, 11.1 mM glucose, 0.1 mg/ml ascorbic acid in 1 L of pyrogen free water. During the experiment, the incubation medium was supplied a mixture of 95% oxygen and 5% carbon dioxide constantly through gas inlet lines at a slow and steady rate to avoid turbulence. To stabilize the release of monoamines, each hypothalamus was preincubated in KRH for 60 min. Following this, the hypothalami were incubated for four 60-min periods as described below.
(§4) During the first incubation period, the hypothalami were incubated in KRH for 60 min to measure the basal release of monoamines and their metabolites. During the second incubation period, the hypothalami were incubated in KRH containing 0, 0.1 mM, 1.0 mM, or 10 mM of deprenyl. After this, the hypothalami were rinsed and incubated in KRH alone (without deprenyl) during the third incubation period to measure the residual effects, if any, from the pervious incubation period. In the final incubation period, the hypothalami were incubated with high K^+ KRH, which, had the same composition as the KRH except that it contained 60 mM KCl and 57 mM NaCl, to check the viability of the tissue. Hypothalami were rinsed with KRH in between incubations. After each incubation period, incubation medium was removed and 0.1 M HClO4 was added to it at the ratio of 25:1 (v/v) and was stored at −70° C. until analysis for neurotransmitters by HPLC-EC. At the end of the treatment period, the hypothalami were transferred to microsample vials containing 0.1 M HClO4 and were stored at −70° C. At the time of HPLC analysis, the hypothalami were homogenized in KRH and centrifuged at 1000 RPM for 15 min and the supernatant was used for the measurement of neurotransmitters.
(§5) The HPLC-EC system has been described before (Palazzolo et al., Life Sci. 47: 2105-2109 (1990); Palazzolo et al., Life Sci. 51: 1797-1802 (1992); ThyagaRajan, S.; Meites et al., Endocrinol. 136: 1103-1110 (1995)). Briefly, it consisted of an LC-4B electrochemical detector (Bioanalytical Systems, West Lafayette, Ind.); a phase II, 5 μm ODS reverse phase, C-18 column; a glassy carbon electrode, a C-R6A Chromatopac integrator, a CTO-6A column oven, and an LC-6A pump (Shimadzu, Columbia, Md.). […]

[2] = tested on: retired racing female greyhounds; experiment: induction of heat in retired racing female greyhounds previously treated with testosterone; assay type: in vivo, greyhound (canine); conditions: oral in saline, seven animals, saline control 22%
Description: Retired racing female greyhounds that were previously treated with testosterone were used in the experiments. Nine animals were used in the control group, and seven animals each were used in the low dose (0.5 mg/kg body weight deprenyl) and the high dose (0.75 mg/kg body weight) groups. Control animals were treated with oral saline solution. Experimental, animals were treated with one of the two doses of deprenyl orally dissolved in saline.

[3] = tested on: release of norepinephrine (NE) from the hypothalamus; experiment: norepinephrine release and content, static in vitro incubation of hypothalami, HPLC-EC; assay type: cell-based, Sprague-Dawley rats; conditions: for content of NE in the hypothalami at the end of the experiment: control 1104±588
Description: as §1, §2, §3, §4, §5

[4] = tested on: carcinogen-induced mammary tumor; conditions: rats; cited from earlier work
serum prolactin = conditions: young and old rats; cited from earlier work
[5] = tested on: release of serotonin (5-HT) from the hypothalamus; experiment: 5-HT release and content, static in vitro incubation of hypothalami, HPLC-EC; assay type: cell-based, Sprague-Dawley rats; conditions: for 5-HT release: second incubation period, control 41.0±21; for content of 5-HT at the end of the experiment: p<0.05
Description: as §1, §2, §3, §4, §5

[6] = tested on: release of 5-hydroxyindoleacetic acid (5-HIAA) from the hypothalamus; experiment: 5-HIAA release and content, static in vitro incubation of hypothalami, HPLC-EC; assay type: cell-based, Sprague-Dawley rats
Description: as §1, §2
The hypothalami were weighed and divided into two halves along the sagittal plane and placed in a 12×75 mm glass tube containing 300 μl of Krebs-Ringer Henseleit (KRH) solution. The hypothalami were incubated in a static in vitro incubation system as described previously (Palazzolo et al., Life Sci. 47: 2105-2109 (1990); Palazzolo et al., Life Sci. 51: 1797-1802 (1992)). Briefly, the incubation system consisted of a plexiglass water bath, a magnetic circulator fin, and a thermostat coil. The bath was filled with distilled water and the thermostat was switched on at least an hour before the perfusion. […]

[7] = tested on: release of dopamine (DA) from the hypothalamus; experiment: dopamine release and content, static in vitro incubation of hypothalami, HPLC-EC; assay type: cell-based, Sprague-Dawley rats; conditions: for DA release after removal of deprenyl: third incubation period; for DA content of the hypothalami at the end of the experiment: p<0.05
Description: as §1, §2, §3, §4, §5

old male rats = conditions: cited from earlier work

N[C@@H](Cc1ccc(O)c(O)c1)C(=O)O [1-dopa]
restoration of heat and the estrous cycle (old acyclic rats): restoration of heat and the estrous cycle

GnRH: hypothalamic hormone called gonadotropin-releasing hormone (QHWSYGLRPG; ends and bridges not checked; UniProt P01148 24-33, looked up)
induction of heat (greyhound bitches): unable to induce heat

CC(C)NNC(=O)c1ccncc1 [Iproniazid, 4-pyridinecarboxyylic acid, 2-(1-methylethyl)hydrazine]
restoration of heat and the estrous cycle (old acyclic rats): reinstate the estrous cycle

C#CCN(C)C(C)Cc1ccccc1 (stereo not drawn) [deprenyl, phenethylamine, N, alpha-dimethyl-N-2-propynyl]
concentration of DOPAC in the hypothalamus at the end of the experiment ([1]; 0.1 mM deprenyl group): 290.0±110
DOPAC release ([1]; 0.1 mM deprenyl): did not produce any change
concentration of DOPAC in the hypothalamus at the end of the experiment ([1]; 1 mM deprenyl group, p<0.05): 86.8±34
DOPAC release ([1]; 1 mM deprenyl, pretreatment 267.7±46, p<0.01): 139.6±19
DOPAC release after removal of deprenyl from the medium ([1]; 1 mM group): remained low
concentration of DOPAC in the hypothalamus at the end of the experiment ([1]; 10 mM deprenyl group, p<0.05): 34.3±16
DOPAC release ([1]; 10 mM deprenyl, pretreatment 285.6±28, p<0.001): 68.9±20
DOPAC release after removal of deprenyl from the medium ([1]; 10 mM group): remained low
DOPAC release on stimulation with high potassium KRH ([1]; all the deprenyl-treated groups (0.1, 1, 10 mM)): did not produce any increase
animals that came to heat ([2]; higher dose 0.75 mg/kg body weight): 86%
animals that came to heat ([2]; low dose 0.5 mg/kg body weight): Fifty
content of NE in the hypothalami at the end of the experiment ([3]; 0.1 mM deprenyl group): 743.3±179
NE release (Mean±S.E.) ([3]; 0.1 mM deprenyl, second incubation period (KRH+DEP), pretreatment 196.9±43, increase not significant): 252.3±48 pg/mg hypothalamus
NE release (Mean±S.E.) ([3]; 0.1 mM group, fourth period, high potassium KRH, p<0.05): 538.2±142 pg/mg hypothalamus
NE release (Mean±S.E.) ([3]; 0.1 mM group, third incubation period (KRH alone after deprenyl)): 185.1±42 pg/mg hypothalamus
content of NE in the hypothalami at the end of the experiment ([3]; 1 mM deprenyl group, p<0.05): 388.1±71
NE release (Mean±S.E.) ([3]; 1 mM group, last period, high K+ KRH, p<0.05): 375.2±92 pg/mg hypothalamus
NE release (Mean±S.E.) ([3]; 1 mM group, third incubation period (KRH alone)): 267.7±28 pg/mg hypothalamus
content of NE in the hypothalami at the end of the experiment ([3]; 10 mM deprenyl group, p<0.05): 281.3±91
NE release (Mean±S.E.) ([3]; 10 mM deprenyl, second incubation period, pretreatment 132.8±56, p<0.05): 799.9±141 pg/mg hypothalamus
NE release (Mean±S.E.) ([3]; 10 mM group, high K+ KRH, not statistically significant): 222.4±57 pg/mg hypothalamus
NE release (Mean±S.E.) ([3]; 10 mM group, third incubation period (KRH alone)): 159.8±41 pg/mg hypothalamus
carcinogen-induced mammary tumor growth [4]: inhibits carcinogen-induced mammary tumor growth
serum prolactin concentrations (serum prolactin): decreases serum prolactin concentrations
5-HT release ([5]; 0.1 mM deprenyl): 186.4±62
5-HT release on stimulation with high potassium KRH ([5]; 0.1 mM group): significant increase
5-HT release ([5]; 1 mM deprenyl): 438.4±85
content of 5-HT at the end of the experiment ([5]; 1 mM group compared to the control group): significantly reduced
5-HT release ([5]; 10 mM deprenyl): 670.3±199
content of 5-HT at the end of the experiment ([5]; 10 mM group compared to the control group): significantly reduced
5-HT release upon removal of deprenyl from the medium ([5]; third incubation period): declined rapidly
content of 5-HIAA in the hypothalami at the end of the experiment ([6]; deprenyl treated groups compared to the control group, P<0.05): significantly low
release of 5-HIAA ([6]; hypothalami incubated with different doses of deprenyl (0.1, 1, 10 mM)): dose-dependant decrease
DA release ([7]; 0.1 mM deprenyl, second incubation period, not significantly different from pretreatment): 125.1±49
DA release ([7]; 0.1 mM group, high K+ KRH, significant increase): 393.1±109
DA release after removal of deprenyl ([7]; 0.1 mM group): brought DA release to pretreatment levels
DA release ([7]; 1 mM deprenyl, second incubation period, pretreatment 42.9±6): 154.8±59
DA content of the hypothalami at the end of the experiment ([7]; 1 mM group compared to 0 mM group): significantly less
DA release ([7]; 1 mM group, high K+ KRH, significant increase): 106.8±27
DA release after removal of deprenyl ([7]; 1 mM group): brought DA release to pretreatment levels
DA release ([7]; 10 mM deprenyl, second incubation period): 197.7±63
DA content of the hypothalami at the end of the experiment ([7]; 10 mM group compared to 0 mM group): significantly less
DA release ([7]; 10 mM group, high potassium KRH, not statistically significant from pretreatment): 85.3±40
DA release after removal of deprenyl ([7]; 10 mM group): returned DA release to basal levels
restoration of heat and the estrous cycle (old acyclic rats): restore heat and the estrous cycle
sexual activity (old male rats): increase sexual activity
